Results as given in PubChem BioAssay (NCI).
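Where inhibition never reached the appropriate level, the endpoint shown equals the highest concentration tested. Otherwise, values were interpolated linearly from a five-concentration, 48-hour dose response in 96-well plates. TGI is the concentration that stops growth completely.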

How the values were obtained:
Experiment in all cases: DTP human tumour cell line panel, 48 h
[1] = tested on: RPMI-8226 leukemia
[2] = tested on: A498 renal
[3] = tested on: NCI/ADR-RES ovarian
[4] = tested on: MOLT-4 leukemia
[5] = tested on: OVCAR-3 ovarian
[6] = tested on: SR leukemia
[7] = tested on: HS 578T breast
[8] = tested on: COLO 205 colon
[9] = tested on: RXF 393 renal
[10] = tested on: SNB-19 CNS
[11] = tested on: LOX IMVI melanoma
[12] = tested on: MCF7 breast
[13] = tested on: MDA-MB-231 breast
[14] = tested on: PC-3 prostate
[15] = tested on: MDA-MB-435
[16] = tested on: M14 melanoma
[17] = tested on: NCI-H460 lung
[18] = tested on: OVCAR-5 ovarian
[19] = tested on: SF-539 CNS
[20] = tested on: SF-295 CNS
[21] = tested on: A549 NSCLC
[22] = tested on: SNB-75 CNS
[23] = tested on: CCRF-CEM leukemia
[24] = tested on: HOP-92 NSCLC
[25] = tested on: SK-OV-3 ovarian
[26] = tested on: 786-0 renal
[27] = tested on: UO-31 renal
[28] = tested on: TK-10 renal
[29] = tested on: HOP-62 NSCLC
[30] = tested on: UACC-62 melanoma
[31] = tested on: NCI-H23 lung
[32] = tested on: MALME-3M melanoma
[33] = tested on: DU-145 prostate
[34] = tested on: HCT-15 colon
[35] = tested on: U251 CNS
[36] = tested on: SK-MEL-5 melanoma
[37] = tested on: OVCAR-4 ovarian
[38] = tested on: SN12C renal
[39] = tested on: BT-549 breast
[40] = tested on: IGROV1 ovarian
[41] = tested on: HCC-2998 colon
[42] = tested on: SK-MEL-28 melanoma
[43] = tested on: T-47D breast
[44] = tested on: SW-620 colon
[45] = tested on: MDA-N
[46] = tested on: NCI-H226 lung
[47] = tested on: HCT-116 colon
[48] = tested on: UACC-257 melanoma
[49] = tested on: CAKI-1 renal
[50] = tested on: KM12 colon
[51] = tested on: SK-MEL-2 melanoma
[52] = tested on: HL-60(TB) leukemia
[53] = tested on: OVCAR-8 ovarian

Measured: TGI

Cc1[nH]c(=O)nc(NNCc2ccc(Cl)cc2)c1C(=O)Nc1ccc(Cl)cc1
> 100 µM: all assays above
